Test system: patients chronically infected with HBV
Experiment: 4-week clinical treatment combining weekly sub-cutaneous pegylated IFNα2a (PEG-IFN) with daily oral EYP001a or placebo: treatment emergent adverse events
Details: compared with Placebo + IFN; significant differences (Table 2)

Compound: O=C(O)c1cc2c(Cl)c(N3CCN(S(=O)(=O)c4c(Cl)cccc4Cl)CC3)ccc2o1 [EYP001a]
- frequency of flu-like AE when IFN treatment was combined with EYP001: lower up to three times less

Source: patent publication US20220241376A1, “METHOD FOR DECREASING ADVERSE-EFFECTS OF INTERFERON” (ENYO PHARMA, priority 2019, published 2022)
